Data on ten compounds can be found in US20230140290A1, “SALICYLAMIDE DERIVATIVES AND RELATED METHODS OF MAKING” (THE BOARD OF REGENTS OF THE UNIVERSITY OF TEXAS SY, priority 2020, published 2023).

Several values for one entry are separate records, joined by “and”; a condition that tells them apart may be missing. Equal values may be shown once.

Data set [1] deals with HAdV5-GFP. The data set is described as follows: Plaque assay (inhibition of HAdV plaque formation). The format is cell-based, HAdV-5. The note with it: for Selectivity index (SI): ratio of CC50 to IC50 in plaque assay; for inhibition at 10 µM: read-out: Plaque Assay (%) Inhibition (10 μM). In outline:
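Cells at 80-90% confluency infected with HAdV5-GFP at 0.06 vp/cell, rocked 2 h at 37° C, then washed with PBS. Compounds tested at 10 μM and in dose-response from 10 to 0.3 μM, included in the post-infection mixture.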

The next data set concerns A549 cells. In words: Cytotoxicity assay (AlamarBlue). The note with it: read-out: CC50 (μM), cytotoxic concentration 50%; A549 cell line, 48 h. The procedure:
(§1) Cytotoxicity Assay. The cytotoxicity of the compounds was analyzed by commercial kit AlamarBlue® (Invitrogen, Ref. DAL1025). A549 cells at a density of 5×10^3 cells per well in 96-well plates were seeded. […] Cells were then incubated at 37° C. for 48 h following the kit protocol. The cytotoxic concentration 50 (CC50) value was obtained using the statistical package GraphPad Prism. This assay was performed in duplicate.
Background: Resazurin is reduced to fluorescent resorufin, in cell work by metabolically active cells.

Data set [2] relates to HAdV5-GFP. The data set is described as follows: Entry assay (HAdV5-mediated GFP expression). It counts as cell-based, HAdV-5. Particulars: for inhibition at 50 µM: A549, 48 h, read-out: (%) Inhibition Entry Assay (50 μM). How it is done:
Entry Assay. The anti-HAdV activity was measured in an entry assay using human A549 epithelial cells (3×10^5 cells/well in coming black wall, clear bottom 96-well plates) infected with HAdV5-GFP (2000 vp/cell) in the presence 50 μM of the candidates and in a dose-response assay. A standard infection curve was generated in parallel by infecting cells in the absence of compounds using serial 2-fold dilutions of virus. All reactions were done in triplicate. Cells, virus, and drugs were incubated for 48 h at 37° C. and 5% CO2.

For data set [3], the system named is wild-type HAdV5. In words: Nuclear-associated HAdV genomes (real-time PCR). The format is cell-based, HAdV-5. The procedure:
(§2) Nuclear-Associated HAdV Genomes. The nuclear delivery of HAdV genomes was assessed by real-time PCR following nuclear isolation from infected cells. […] Forty-five minutes after infection, A549 cells were trypsinized and collected and then washed twice with PBS. Then, cytoplasmic and nuclear fractions were separated using a hypotonic buffer solution and NP-40 detergent. The cell pellet was resuspended in 500 μL of 1×hypotonic buffer (20 mM Tris-HCl pH 7.4, 10 mM NaCl, 3 mM MgCl2) and incubated for 15 min at 4° C. Then, 25 μL of NP-40 was added and the samples were vortexed. The homogenates were centrifuged for 10 min at 835 g at 4° C. Following the removal of the cytoplasmic fraction (supernatant), HAdV DNA was isolated from the nuclear fraction (pellet) and from the cytoplasmic fraction using the QIAamp DNA Mini Kit (QIAGEN, Valencia, Calif.).
as §2, with “E.Z.N.A.® Tissue” for “QIAamp”, “DNA” for “DNA Mini”, “(Omega Bio-tek, Norcross, Ga.).” for “(QIAGEN, Valencia, Calif.).”
(Real-time PCR tracks product formation cycle by cycle.)

Data set [4] deals with wild-type HAdV5. In words: HAdV DNA quantification by real-time PCR (DNA replication). It counts as cell-based, HAdV-5. The note with it: 24 h. How it is done:
DNA Quantification by Real-Time PCR. […] Infected cells were incubated 24 h at 37° C. in 500 μL of complete DMEM containing 25 μM of either compounds or the same volume of DMSO (positive control). All samples were done in duplicate. After 24 h of incubation at 37° C., DNA was purified from the cell lysate with the QIAamp DNA Mini Kit (QIAGEN, Valencia, Calif.) following the manufacturer's instructions. TaqMan primers and probes for a common region of the HAdV5 were designed with the GenScript Real-Time PCR (TaqMan) Primer Design software (GenScript). […] Real-time PCR mixtures consisted of 9.5 μL of the purified DNA, AQ1 and AQ2 at a concentration of 200 nM each and Probe at a concentration of 50 nM in a total volume of 25 μL. The PCR cycling protocol was 95° C. for 3 min followed by 40 cycles of 95° C. for 10 s and 60° C. for 30 s. Human glyceraldehyde-3-phosphate dehydrogenase (GAPDH) gene was used as internal control. Oligonucleotides sequences for GAPDH and conditions were those previously reported by Henke-Gendo et al. (2012).
For quantification, gene fragments from hexon, and GAPDH were cloned into the pGEM-T Easy vector (Promega) and known concentrations of template were used to generate a standard curve in parallel for each experiment. All assays were performed in thermal cycler LightCycler® 96 System (Roche).
(§3) HAdV DNA Quantification by Real-Time PCR. […] All samples were done in duplicate. After 24 h of incubation at 37° C., DNA was purified from the cell lysate with the E.Z.N.A.® Tissue DNA Kit (Omega Bio-tek, Norcross, Ga.) following the manufacturer's instructions. TaqMan primers and probes for a common region of the HAdV5 were designed with the GenScript Real-Time PCR (TaqMan) Primer Design software (GenScript). […] Real-time PCR mixtures consisted of 9.5 μL of the purified DNA, AQ1 and AQ2 at a concentration of 200 nM each and Probe at a concentration of 50 nM in a total volume of 25 μL. The PCR cycling protocol was 95° C. for 3 min followed by 40 cycles of 95° C. for 10 s and 60° C. for 30 s. Human glyceraldehyde-3-phosphate dehydrogenase (GAPDH) gene was used as internal control. Oligonucleotides sequences for GAPDH and conditions were those previously reported by Henke-Gendo et al. (2012).
as §3, with “DNA” for “HAdV DNA”

The nature of data set [5]: Cytotoxicity assay (AlamarBlue). Particulars: human, A549 cells. The procedure:
as §1

Setting [6] is: read-out: Plaque Assay IC50 (μM), HAdV5-GFP, low MOI, 293β5 cell line.
[7] abbreviates: A549, read-out: IC50 Entry Assay (μM), HAdV5-GFP, high MOI, A549 cell line.
The mark [8] stands for this setting: FIG. 5A, 45 min post-infection, 10-fold plaque IC50.

On to `O=C(Nc1cc(F)cc(C(F)(F)F)c1)c1ccc(Cl)cc1O` [Compound 20, 4-Chloro-N-(3-fluoro-5-(trifluoromethyl)phenyl)-2-hydroxybenzamide], for which the “Selectivity index (SI)” value in the data set with HAdV5-GFP [1] is on record as 186.8. For the same compound, the inhibition – broadly, the percentage by which the read-out fell short of the control – at 10 µM in the data set with HAdV5-GFP [1] is 96.8 ± 1.9%. Besides, the IC50 (in general, the concentration that inhibits the measured activity by half) turned out to be 0.11 µM in the data set with HAdV5-GFP [1] (setting [6]) and 0.26 ± 0.09 µM in the data set on HAdV5-GFP [2] (setting [7]). The CC50 in the data set with A549 cells stood at 20.6 µM. Further, the inhibition at 50 µM in the data set on HAdV5-GFP [2] was found to be 100%. For the same compound, the “amount of nuclear-associated HAdV genomes versus DMSO” value in the data set on wild-type HAdV5 [3] (FIG. 3, 45 min post infection, concentrations by CC50 (2-50 μM)) is on record as “partially inhibited”. Besides, the “inhibition of HAdV-5 DNA replication (qPCR)” value (from here on “inhibition … (qPCR)”) in the data set with wild-type HAdV5 [4] (FIG. 4, concentrations by CC50 (2-50 μM)) is “low inhibition”.

For the compound `C[C@@H](NC(=O)c1cc(Cl)ccc1O)c1ccc(F)cc1` [Compound 49, (R)-5-Chloro-N-(1-(4-fluorophenyl)ethyl)-2-hydroxybenzamide], in the data set on HAdV5-GFP [1], the “Selectivity index (SI)” value is 57.8 and 66.2; the inhibition at 10 µM amounted to 100%. The IC50 in the data set on HAdV5-GFP [1] (setting [6]) stood at 3.02 µM. In addition, in data set [5], the CC50 at 48 h is > 200 µM.

Consider `CC(C)(NC(=O)c1cc(Cl)ccc1O)c1ccc(F)cc1` [Compound 51, 5-Chloro-N-(2-(4-fluorophenyl)propan-2-yl)-2-hydroxybenzamide], for which, in the data set with HAdV5-GFP [1], the “Selectivity index (SI)” value was 39.1 and 57.8; the inhibition at 10 µM came to 100%. In addition, the IC50 with HAdV5-GFP [1] (setting [6]) came to 3.46 µM. Besides, in data set [5], the CC50 at 48 h was > 200 µM.

On to `O=C(Nc1ccc(NCc2ccc(O)cc2)cc1Cl)c1cc(Cl)ccc1O` [Compound 101, 5-Chloro-N-(2-chloro-4-((4-hydroxybenzyl)amino)phenyl)-2-hydroxybenzamide], for which the “Selectivity index (SI)” value with HAdV5-GFP [1] worked out at 104.1. For the same compound, in the data set on HAdV5-GFP [1], the inhibition at 10 µM stood at 80.7 ± 9.1%. In addition, the IC50 is 1.11 µM with HAdV5-GFP [1] (setting [6]), 15.2 to 30.8 µM in the data set on HAdV5-GFP [2] (setting [7]) and 25 ± 6.9 µM in the data set on HAdV5-GFP [2] ({}). In the data set on A549 cells, the CC50 stood at 116 µM. The inhibition at 50 µM in the data set on HAdV5-GFP [2] was found to be 83.3%. For the same compound, the “amount of nuclear-associated HAdV genomes versus DMSO” value in the data set with wild-type HAdV5 [3] (setting [8]) is “significant reductions”. The “inhibition … (qPCR)” value with wild-type HAdV5 [4] (FIG. 6A, 10-fold plaque IC50) is on record as “low inhibition”.

In the case of `O=C(Nc1ccc(NCc2ccncc2)cc1Cl)c1cc(Cl)ccc1O` [Compound 108, 5-Chloro-N-(2-chloro-4-((pyridin-4-ylmethyl)amino)phenyl)-2-hydroxybenzamide], the IC50 in the data set with HAdV5-GFP [1] (HAdV5-GFP, low MOI, 293β5 cell line, read-out: Plaque Assay IC50) was 1.66 to 4.78 µM. Besides, in the data set on HAdV5-GFP [1], the “Selectivity index (SI)” value is given as 24.6 and the inhibition at 10 µM came out at 100%. Besides, half-maximal inhibition in the data set with HAdV5-GFP [1] ({}) (IC50) required 2.66 ± 0.17 µM. This compound also displayed a CC50 at 48 h in data set [5] of 65.3 to 126 µM. In the data set on A549 cells, the CC50 was determined as 65.3 ± 5.7 µM.

Consider `O=C(Nc1ccc(NCc2cccnc2Cl)cc1Cl)c1cc(Cl)ccc1O` [Compound 109, 5-Chloro-N-(2-chloro-4-(((2-chloropyridin-3-yl)methyl)amino)phenyl)-2-hydroxybenzamide], for which, in the data set on HAdV5-GFP [1], the “Selectivity index (SI)” value is listed as 21.0 and the inhibition at 10 µM was determined as 100%. This compound also had a CC50 at 48 h in data set [5] of 65.3 to 126 µM. For the same compound, the CC50 in the data set on A549 cells was 100 ± 29.8 µM.

On to `O=C(Nc1ccc(NCc2ccc(O)nc2)cc1Cl)c1cc(Cl)ccc1O` [Compound 112, 5-Chloro-N-(2-chloro-4-(((6-hydroxypyridin-3-yl)methyl)amino)phenyl)-2-hydroxybenzamide], for which, in the data set with HAdV5-GFP [1], the “Selectivity index (SI)” value is listed as 126.3 and the inhibition at 10 µM worked out at 100%. The IC50 in the data set with HAdV5-GFP [1] (setting [6]) amounted to 0.78 µM. The CC50 in the data set with A549 cells is 98.5 µM. The inhibition at 50 µM with HAdV5-GFP [2] was 51.7 ± 9.8%. Besides, the IC50 in the data set with HAdV5-GFP [2] (setting [7]) was > 50 µM. Further, the “amount of nuclear-associated HAdV genomes versus DMSO” value with wild-type HAdV5 [3] (setting [8]) is on record as “significant reductions”. In the data set on wild-type HAdV5 [4] (FIG. 6A, 10-fold plaque IC50), the “inhibition … (qPCR)” value is given as “low inhibition”.

For `CC(C)(CCO)Nc1ccc(NC(=O)c2cc(Cl)ccc2O)c(Cl)c1` [Compound 118, 5-Chloro-N-(2-chloro-4-((4-hydroxy-2-methylbutan-2-yl)amino)phenyl)-2-hydroxybenzamide], in the data set on HAdV5-GFP [1], the “Selectivity index (SI)” value was determined as 188.3 and the inhibition at 10 µM was 92.3%. In the data set with HAdV5-GFP [1] (setting [6]), the IC50 was found to be 0.9 µM. Further, the CC50 with A549 cells was 170 ± 4.2 µM. Besides, in the data set with HAdV5-GFP [2], the inhibition at 50 µM was found to be 42.1 ± 3%. The IC50 with HAdV5-GFP [2] (setting [7]) is > 50 µM. The “amount of nuclear-associated HAdV genomes versus DMSO” value in the data set on wild-type HAdV5 [3] (setting [8]) was “no significant differences”. The “inhibition … (qPCR)” value in the data set on wild-type HAdV5 [4] (FIG. 6A, 10-fold plaque IC50) is on record as “low inhibition”.

In the case of `CC(CCO)Nc1ccc(NC(=O)c2cc(Cl)ccc2O)c(Cl)c1` (stereo not shown) [Compound 119, 5-Chloro-N-(2-chloro-4-((4-hydroxybutan-2-yl)amino)phenyl)-2-hydroxybenzamide], in the data set on HAdV5-GFP [1], the “Selectivity index (SI)” value was determined as 166.7 and the inhibition at 10 µM worked out at 96.9 ± 2.4%. In addition, the IC50 in the data set on HAdV5-GFP [1] (setting [6]) worked out at 1.2 µM. Besides, the CC50 with A549 cells was 200 µM. Moreover, the inhibition at 50 µM in the data set on HAdV5-GFP [2] worked out at 88.6%. Also, the “amount of nuclear-associated HAdV genomes versus DMSO” value in the data set with wild-type HAdV5 [3] (setting [8]) is listed as “no significant differences”. Also, the “inhibition … (qPCR)” value in the data set on wild-type HAdV5 [4] (FIG. 6A, 10-fold plaque IC50) is “low inhibition”.

Consider `Nc1ccn(C[C@@H](CO)OCP(=O)(O)O)c(=O)n1` [cidofovir, reference compound], for which the “Selectivity index (SI)” value with HAdV5-GFP [1] is recorded as 7.5. Besides, the IC50 with HAdV5-GFP [1] (setting [6]) came to 24.1 ± 5.9 µM. In addition, in data set [5], the CC50 at 48 h came to 50.1 ± 9.8 µM.
